Experimental data: ChEMBL document CHEMBL1146337, “Efficient synthesis of substituted 7-methyl-2H,5H-pyrano[4,3-b]pyran-5-ones and evaluation of their in vitro antiproliferative/cytotoxic activities” (Bioorg Med Chem Lett, 2007)
Active and inactive are the calls of the source. No cut-off for these calls is given here.

What was measured:
SH-SY5Y [1] = assay: Antiproliferative activity against human SH-SY5Y cells at 50 ug/mL after 24 hrs; format: functional
SH-SY5Y [2] = assay: Antiproliferative activity against human SH-SY5Y cells at 25 ug/mL after 24 hrs; format: functional
SH-SY5Y [3] = assay: Cytotoxicity against human SH-SY5Y cells after 24 hrs; format: functional, cell-based
SH-SY5Y [4] = assay: Antiproliferative activity against human SH-SY5Y cells at 12.5 ug/mL after 24 hrs; format: functional
SH-SY5Y [5] = assay: Antiproliferative activity against human SH-SY5Y cells at 6.25 ug/mL after 24 hrs; format: functional
SH-SY5Y [6] = assay: Antiproliferative activity against human SH-SY5Y cells at 3.13 ug/mL after 24 hrs; format: functional
SH-SY5Y [7] = assay: Antiproliferative activity against human SH-SY5Y cells at 1.56 ug/mL after 24 hrs; format: functional
IPC = assay: Necrotic effect in human IPC cells at 12.5 ug/mL after 3 hrs; format: functional, cell-based

Row | SMILES | inhibition at 50 µg/mL (SH-SY5Y [1]) [%] | inhibition at 25 µg/mL (SH-SY5Y [2]) [%] | IC50 (SH-SY5Y [3]) [µM] | inhibition at 12.5 µg/mL (SH-SY5Y [4]) [%] | inhibition at 6.25 µg/mL (SH-SY5Y [5]) [%] | inhibition at 3.13 µg/mL (SH-SY5Y [6]) [%] | inhibition at 1.56 µg/mL (SH-SY5Y [7]) [%] | Activity (IPC)
1 | CC1=Cc2c(cc(C)oc2=O)OC1C (configuration not stated) | 53.8 | 43.8 | 200 |  |  |  |  | 
2 | CC1=Cc2c(cc(C)oc2=O)OC1c1ccco1 (configuration not stated) | 64.4 | 64.3 | 49 | 50.6 | 30.9 | 21.6 |  | 
3 | Cc1cc2c(c(=O)o1)C=C(c1ccccc1)C(CC(C)C)O2 (configuration not stated) | 81.7 | 45.7 | 93 | 14.6 |  |  |  | 
4 | CCCCCCCCC1C=Cc2c(cc(C)oc2=O)O1 (configuration not stated) | 83.3 | 60.1 | 76 | 21.1 |  |  |  | 
5 | Cc1cc2c(c(=O)o1)C=C1CCCC1O2 (configuration not stated) | 51.2 | 14.9 | 252 | 19.3 |  |  |  | 
6 | Cc1cc2c(c(=O)o1)C=C(C(C)C)C(CC(C)C)O2 (configuration not stated) | 95.7 | 96.6 | 6.7 | 94 | 93.8 | 87.5 | 38.5 | inactive
7 | CC(C)=CCCC1(C)C=Cc2c(cc(C)oc2=O)O1 (configuration not stated) | 37.4 | 30.4 | > 200 |  |  |  |  | 
8 | CCC1C=Cc2c(cc(C)oc2=O)O1 (configuration not stated) | 43.7 | 4.95 | > 200 | 3.62 |  |  |  | 
9 | Cc1cc2c(c(=O)o1)C=C1C(C)(C)CC=CC1(C)O2 (configuration not stated) | 84.8 | 79.8 | 47 | 51.9 | 16.9 | 6.01 |  | 
10 | Cc1cc2c(c(=O)o1)C=C1CCCCC1(C)O2 (configuration not stated) | 60.6 | 11.4 | 185 | 1.18 |  |  |  | 
11 | Cc1cc2c(c(=O)o1)C=C1C(C)(C)CCCC1(C)O2 (configuration not stated) | 75.1 | 74.2 | 31 | 72.9 | 18.4 | 1.11 | 8.34 | 
12 | Cc1cc2c(c(=O)o1)C=C1C(C[C@H]3C[C@@H]1C3(C)C)O2 (some centres not stated) | 84.1 | 67.8 | 70 | 24.4 |  |  |  | 
